Assay [1] concerns genotype 1a (H77) wild type transient HCV replicon in Huh-7-derived cells. The experiment in a line: Transient-transfected HCV replicon EC50, genotype 1a wild type. The format is cell-based, hepatitis C virus. The following applies: Hepatitis C virus, 72 h, transient-transfected replicon genotype 1a wild type, read-out: EC50 1A WT. In general terms: Replicon systems follow genome replication, usually without infectious particles.

Assay [2] has as its system genotype 1b NS3/4a protease inhibitor resistant variant D168A transient HCV replicon in Huh-7-derived cells. In words: Transient-transfected HCV replicon EC50, genotype 1b D168A. The format is cell-based, hepatitis C virus. The note with it: Hepatitis C virus, 72 h, read-out: EC50 1B D168A, transient-transfected replicon genotype 1b D168A resistant variant, 72 h.
For assay [3], the target named is HCV NS3 protease domain genotype 1b (Hepatitis C virus genotype 1b (isolate Con1), UniProt Q9WMX2, E1202G). In words: Ki determination, NS3 protease genotype 1b (fluorogenic depsipeptide substrate). The assay is classed as biochemical. The following applies: 50 pM enzyme, NS4A peptide.
Sequence of HCV NS3 protease domain genotype 1b (Q9WMX2 1027-1208 E1202G): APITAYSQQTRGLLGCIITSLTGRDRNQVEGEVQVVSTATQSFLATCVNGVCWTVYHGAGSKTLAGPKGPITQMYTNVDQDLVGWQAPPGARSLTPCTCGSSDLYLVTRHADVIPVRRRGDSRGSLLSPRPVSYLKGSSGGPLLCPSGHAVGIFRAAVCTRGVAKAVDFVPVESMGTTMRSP
In assay [4] the test system is genotype 3a (S52) stable HCV replicon in Huh-7-derived cells. The experiment in a line: Stable subgenomic HCV replicon EC50, genotype 3a (Renilla luciferase). The format is cell-based, hepatitis C virus. The following applies: Hepatitis C virus, 72 h, read-out: EC50 3A RLUC.
Assay [5] relates to genotype 1a (H77) stable HCV replicon in Huh-7-derived cells. The experiment in a line: Stable subgenomic HCV replicon EC50, genotype 1a (Renilla luciferase). The assay is classed as cell-based, hepatitis C virus. The note with it: Hepatitis C virus, stable replicon genotype 1a, 72 h, read-out: EC50 1A RLUC. The procedure, abridged:
(§1)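 Compounds, three-fold diluted, were applied to Huh-7-derived cells harbouring luciferase replicons (genotype 1a H77, 1b Con1, 2a JFH-1, 4a ED43, with strain-specific adaptive mutations). Seventy-two hours later, intracellular replication was gauged by Renilla luciferase activity and EC50 derived by regression.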

In assay [6] the test system is genotype 1a NS3/4a protease inhibitor resistant variant R155K transient HCV replicon in Huh-7-derived cells. In words: Transient-transfected HCV replicon EC50, genotype 1a R155K. The note with it: Hepatitis C virus, 72 h, read-out: EC50 1A R155K, transient-transfected replicon genotype 1a R155K resistant variant, 72 h. The format is cell-based, hepatitis C virus.
The subject of assay [7] is genotype 2a (JFH-1) stable HCV replicon in Huh-7-derived cells. The experiment in a line: Stable subgenomic HCV replicon EC50, genotype 2a (Renilla luciferase). The assay is classed as cell-based, hepatitis C virus. The note with it: Hepatitis C virus, stable replicon genotype 2a, 72 h, read-out: EC50 2A RLUC. The procedure, abridged: as §1
In assay [8] the test system is genotype 1b (Con1) wild type transient HCV replicon in Huh-7-derived cells. In words: Transient-transfected HCV replicon EC50, genotype 1b wild type. The following applies: Hepatitis C virus, 72 h, transient-transfected replicon genotype 1b wild type, read-out: EC50 1B WT. The assay is classed as cell-based, hepatitis C virus.
Assay [9] concerns genotype 3a (S52) wild type transient HCV replicon in Huh-7-derived cells. In words: Transient-transfected HCV replicon EC50, genotype 3a wild type. The format is cell-based, hepatitis C virus. The following applies: Hepatitis C virus; transient-transfected replicon genotype 3a wild type, 72 h; read-out: EC50 3A WT.
Assay [10] deals with genotype 1b (Con1) stable HCV replicon in Huh-7-derived cells. In words: Stable subgenomic HCV replicon EC50, genotype 1b (Renilla luciferase). The format is cell-based, hepatitis C virus. The note with it: Hepatitis C virus, stable replicon genotype 1b, 72 h, read-out: EC50 1B RLUC. The procedure, abridged:
as §1

Assay [11] deals with genotype 4a (ED43) stable HCV replicon in Huh-7-derived cells. The experiment in a line: Stable subgenomic HCV replicon EC50, genotype 4a (Renilla luciferase). The format is cell-based, hepatitis C virus. The following applies: Hepatitis C virus, 72 h, read-out: EC50 4A RLUC. The procedure, abridged:
as §1

For assay [12], the target named is HCV NS3 protease domain genotype 3a (Hepatitis C virus genotype 3a, UniProt Q81258). In words: Ki determination, NS3 protease genotype 3a (fluorogenic depsipeptide substrate). The assay is classed as biochemical. The following applies: 200 pM enzyme, NS4A peptide. The procedure, abridged: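 The NS3 protease domain (aa 1-181) with 20 μM NS4A peptide was used at 50 pM with 4 μM substrate (1b) or at 200 pM with 2 μM substrate (3a). Inhibitors (100 nM-5 pM) were pre-incubated 1 h at room temperature in HEPES/glycerol/DTT buffer with 10% DMSO. Steady-state rates (90-120 min) gave Ki via the Morrison equation, corrected for active enzyme and [S]/Km.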
Sequence of HCV NS3 protease domain genotype 3a (Q81258 whole entry, looked up, the tested form may be a part): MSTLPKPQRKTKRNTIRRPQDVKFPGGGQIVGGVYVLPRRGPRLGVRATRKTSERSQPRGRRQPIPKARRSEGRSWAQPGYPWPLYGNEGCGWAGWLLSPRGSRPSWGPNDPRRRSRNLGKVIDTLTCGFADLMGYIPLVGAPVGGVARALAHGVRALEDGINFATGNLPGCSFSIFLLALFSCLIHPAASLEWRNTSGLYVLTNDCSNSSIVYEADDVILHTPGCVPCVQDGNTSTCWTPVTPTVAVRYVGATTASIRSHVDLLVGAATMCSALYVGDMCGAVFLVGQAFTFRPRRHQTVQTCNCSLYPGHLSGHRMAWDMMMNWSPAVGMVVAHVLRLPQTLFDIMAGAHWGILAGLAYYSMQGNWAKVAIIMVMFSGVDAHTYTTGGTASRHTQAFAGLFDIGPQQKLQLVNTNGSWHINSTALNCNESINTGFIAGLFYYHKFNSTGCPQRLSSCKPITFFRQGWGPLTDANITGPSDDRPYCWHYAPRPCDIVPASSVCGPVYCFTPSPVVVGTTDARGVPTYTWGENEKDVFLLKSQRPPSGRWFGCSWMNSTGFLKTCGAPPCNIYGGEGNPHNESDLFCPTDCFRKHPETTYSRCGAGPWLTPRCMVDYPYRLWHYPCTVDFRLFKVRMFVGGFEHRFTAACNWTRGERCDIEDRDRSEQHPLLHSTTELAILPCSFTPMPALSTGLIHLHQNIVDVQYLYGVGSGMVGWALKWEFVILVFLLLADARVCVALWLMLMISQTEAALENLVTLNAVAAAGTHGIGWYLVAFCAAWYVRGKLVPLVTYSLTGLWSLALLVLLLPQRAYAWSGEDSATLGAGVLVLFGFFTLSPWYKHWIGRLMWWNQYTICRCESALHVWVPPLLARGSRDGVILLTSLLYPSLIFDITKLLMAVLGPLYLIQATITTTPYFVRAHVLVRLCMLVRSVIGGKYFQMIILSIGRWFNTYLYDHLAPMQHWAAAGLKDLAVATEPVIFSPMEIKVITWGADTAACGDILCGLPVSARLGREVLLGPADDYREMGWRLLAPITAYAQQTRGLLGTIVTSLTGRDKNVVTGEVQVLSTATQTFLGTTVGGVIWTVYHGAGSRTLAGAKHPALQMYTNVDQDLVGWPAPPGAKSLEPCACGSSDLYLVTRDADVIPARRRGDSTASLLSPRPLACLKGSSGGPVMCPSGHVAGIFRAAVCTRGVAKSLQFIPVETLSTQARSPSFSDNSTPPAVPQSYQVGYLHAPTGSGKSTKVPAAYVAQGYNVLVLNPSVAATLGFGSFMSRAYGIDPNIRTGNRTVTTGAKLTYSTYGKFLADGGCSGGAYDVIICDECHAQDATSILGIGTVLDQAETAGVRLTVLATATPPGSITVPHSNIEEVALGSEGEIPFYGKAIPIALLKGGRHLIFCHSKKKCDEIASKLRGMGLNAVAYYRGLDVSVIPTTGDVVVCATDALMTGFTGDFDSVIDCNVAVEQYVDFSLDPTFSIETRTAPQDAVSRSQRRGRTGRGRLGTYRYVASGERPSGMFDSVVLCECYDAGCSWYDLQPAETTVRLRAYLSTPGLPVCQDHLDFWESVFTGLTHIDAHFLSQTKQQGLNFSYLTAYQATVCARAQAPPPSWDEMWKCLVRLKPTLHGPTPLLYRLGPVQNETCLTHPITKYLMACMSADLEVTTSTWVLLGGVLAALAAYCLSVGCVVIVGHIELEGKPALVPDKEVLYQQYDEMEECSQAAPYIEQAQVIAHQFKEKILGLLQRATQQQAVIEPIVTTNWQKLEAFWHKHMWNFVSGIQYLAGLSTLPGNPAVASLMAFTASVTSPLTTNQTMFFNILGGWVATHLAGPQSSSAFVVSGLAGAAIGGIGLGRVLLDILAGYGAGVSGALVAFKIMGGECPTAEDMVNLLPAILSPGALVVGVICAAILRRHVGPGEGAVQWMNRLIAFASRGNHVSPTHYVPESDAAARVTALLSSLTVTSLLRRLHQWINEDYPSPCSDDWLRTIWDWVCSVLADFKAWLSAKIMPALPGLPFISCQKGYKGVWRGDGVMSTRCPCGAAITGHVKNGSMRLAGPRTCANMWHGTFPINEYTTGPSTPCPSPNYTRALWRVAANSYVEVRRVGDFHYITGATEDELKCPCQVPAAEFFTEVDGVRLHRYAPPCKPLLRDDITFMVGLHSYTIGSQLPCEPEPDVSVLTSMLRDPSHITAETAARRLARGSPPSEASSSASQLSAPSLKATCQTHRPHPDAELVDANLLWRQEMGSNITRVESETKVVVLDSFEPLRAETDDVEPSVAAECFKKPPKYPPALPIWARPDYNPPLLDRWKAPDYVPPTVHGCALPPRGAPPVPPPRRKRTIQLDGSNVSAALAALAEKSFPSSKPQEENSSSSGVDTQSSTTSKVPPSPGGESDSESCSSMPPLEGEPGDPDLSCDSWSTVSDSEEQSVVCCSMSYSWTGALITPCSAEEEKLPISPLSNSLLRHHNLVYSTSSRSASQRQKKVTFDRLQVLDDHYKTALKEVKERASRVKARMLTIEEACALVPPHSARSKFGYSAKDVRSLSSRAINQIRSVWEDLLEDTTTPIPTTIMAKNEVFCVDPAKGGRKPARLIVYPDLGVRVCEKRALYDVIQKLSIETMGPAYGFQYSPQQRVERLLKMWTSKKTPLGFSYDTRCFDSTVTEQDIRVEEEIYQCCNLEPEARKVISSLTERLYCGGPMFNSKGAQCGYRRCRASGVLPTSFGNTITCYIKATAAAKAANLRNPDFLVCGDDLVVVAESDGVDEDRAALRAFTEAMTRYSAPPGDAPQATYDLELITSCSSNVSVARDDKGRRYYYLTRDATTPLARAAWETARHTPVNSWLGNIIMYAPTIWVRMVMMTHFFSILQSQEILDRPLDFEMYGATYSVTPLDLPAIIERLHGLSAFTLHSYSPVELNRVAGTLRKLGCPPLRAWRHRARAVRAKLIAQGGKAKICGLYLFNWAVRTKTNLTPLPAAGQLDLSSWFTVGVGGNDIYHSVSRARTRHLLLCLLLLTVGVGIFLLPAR

What is called EC50 is the concentration that produces a half-maximal response. For orientation: Ki means a dissociation constant, usually derived from enzyme kinetics or from competition with a known ligand. High values mean a looser hold on the target, low ones a stronger hold on the target.

For the compound `C[C@@H]1[C@@H]2CN(C(=O)[C@H](C(C)(C)C)NC(=O)O[C@@H]3C[C@@H]4C[C@@H]4[C@H]3CCCCCc3nc4ccc(Cl)cc4nc3O2)[C@@H]1C(=O)N[C@]1(C(=O)NS(=O)(=O)C2CC2)C[C@H]1C(F)F` [Example 79, (1aS,2aR,6S,9S,10S,11R,23aR,23bS)-6-tert-butyl-15-chloro-N-[(1R,2R)-1-[(cyclopropylsulfonyl)carbamoyl]-2-(difluoromethyl)cyclopropyl]-10-methyl-4,7-dioxo-1a,2,2a,4,5,6,7,10,11,19,20,21,22,23,23a,23b-hexadecahydro-1H,9H-8,11-methanocyclopropa[4′,5′]cyclopenta[1′,2′:18,19][1,10,3,6]dioxadiazacyclononadecino[11,12-b]quinoxaline-9-carboxamide], the EC50 was found to be 6.1 nM in assay [1]; 11 nM in [2]; 71 nM in assay [4]; 7 nM in [5]; 7.1 nM in [6]; 4.1 nM in assay [7]. Further, the EC50 in [8] worked out at 3 nM; in assay [9] it was 9.2 nM; in assay [10], 5.8 nM; in [11] it was 5.6 nM. The Ki in [3] and in [12] was 0.06 nM each time.

Take `CC[C@@H]1[C@@H]2CN(C(=O)[C@H](C(C)(C)C)NC(=O)O[C@@H]3C[C@@H]4C[C@@H]4[C@H]3CCCCCc3nc4ccc(OC)cc4nc3O2)[C@@H]1C(=O)N[C@]1(C(=O)NS(=O)(=O)C2CC2)C[C@H]1C(F)F` [Example 70, (1aS,2aR,6S,9S,10S,11R,23aR,23bS)-6-tert-butyl-N-[(1R,2R)-1-[(cyclopropylsulfonyl)carbamoyl]-2-(difluoromethyl)cyclopropyl]-10-ethyl-15-methoxy-4,7-dioxo-1a,2,2a,4,5,6,7,10,11,19,20,21,22,23,23a,23b-hexadecahydro-1H,9H-8,11-methanocyclopropa[4′,5′]cyclopenta[1′,2′:18,19][1,10,3,6]dioxadiazacyclononadecino[11,12-b]quinoxaline-9-carboxamide]: the concentration giving a half-maximal response (EC50) amounted to 7.7 nM in assay [1]; 7.3 nM in [2]; 41 nM in assay [4]; 8.4 nM in assay [5]; 5.4 nM in [6]; 15 nM in assay [7]. Further, the EC50 in assay [8] is 6.1 nM; in [9], 17 nM; in [10] it was 8.5 nM; in assay [11], 6.4 nM. Also, the Ki in [3] and in assay [12] was 0.05 nM throughout.

For `COc1ccc2nc3c(nc2c1)O[C@H]1CN(C(=O)[C@H](C(C)(C)C)NC(=O)O[C@@H]2C[C@@H]4C[C@@H]4[C@H]2CCCCC3(F)F)[C@H](C(=O)N[C@]2(C(=O)NS(=O)(=O)C3CC3)C[C@H]2C(F)F)[C@@H]1C` [Example 62, (1aS,2aR,6S,9S,10S,11R,23aR,23bS)-6-tert-butyl-N-[(1R,2R)-1-[(cyclopropylsulfonyl)carbamoyl]-2-(difluoromethyl)cyclopropyl]-19,19-difluoro-15-methoxy-10-methyl-4,7-dioxo-1a,2,2a,4,5,6,7,10,11,19,20,21,22,23,23a,23b-hexadecahydro-1H,9H-8,11-methanocyclopropa[4′,5′]cyclopenta[1′,2′:18,19][1,10,3,6]dioxadiazacyclononadecino[11,12-b]quinoxaline-9-carboxamide], the EC50 was determined as 3.5 nM in assay [1]; 2 nM in [2]; 8.5 nM in assay [4]; 3.4 nM in [5]; 2.7 nM in assay [6]; 5 nM in assay [7]. Further, the EC50 came to 1.5 nM in assay [8], 4 nM in [9], 3 nM in [10] and 2.4 nM in assay [11]. In addition, the results for the Ki in assay [3] and in assay [12] were 0.04 nM and 0.03 nM, respectively.

In the case of `C[C@@H]1[C@@H]2CN(C(=O)[C@H](C(C)(C)C)NC(=O)O[C@@H]3C[C@@H]4C[C@@H]4[C@H]3CCCCCc3nc4ccc(F)cc4nc3O2)[C@@H]1C(=O)N[C@]1(C(=O)NS(=O)(=O)C2(C)CC2)C[C@H]1C(F)F` [Example 86, (1aS,2aR,6S,9S,10S,11R,23aR,23bS)-6-tert-butyl-N-[(1R,2R)-2-(difluoromethyl)-1-{[(1-methylcyclopropyl)sulfonyl]carbamoyl}cyclopropyl]-15-fluoro-10-methyl-4,7-dioxo-1a,2,2a,4,5,6,7,10,11,19,20,21,22,23,23a,23b-hexadecahydro-1H,9H-8,11-methanocyclopropa[4′,5′]cyclopenta[1′,2′:18,19][1,10,3,6]dioxadiazacyclononadecino[11,12-b]quinoxaline-9-carboxamide], the EC50 was 4 nM in assay [1]; 10 nM in assay [2]; 42 nM in [4]; 5.6 nM in assay [5]; 3.7 nM in assay [6]; 5.9 nM in [7]. Besides, the EC50 was found to be 3.4 nM in assay [8], 16 nM in [9], 5.5 nM in [10] and 5.7 nM in [11]. The values for the Ki in [3] and in assay [12] were 0.04 nM and 0.07 nM, respectively.

Take `CC[C@@H]1[C@@H]2CN(C(=O)[C@H](C(C)(C)C)NC(=O)O[C@@H]3C[C@@H]4C[C@@H]4[C@H]3CCCCC(F)(F)c3nc4ccc(OC)cc4nc3O2)[C@@H]1C(=O)N[C@]1(C(=O)NS(=O)(=O)C2CC2)C[C@H]1C(F)F` [Example 59, (1aS,2aR,6S,9S,10 S,11R,23aR,23bS)-6-tert-butyl-N-[(1R,2R)-1-[(cyclopropylsulfonyl)carbamoyl]-2-(difluoromethyl)cyclopropyl]-10-ethyl-19,19-difluoro-15-methoxy-4,7-dioxo-1a,2,2a,4,5,6,7,10,11,19,20,21,22,23,23a,23b-hexadecahydro-1H,9H-8,11-methanocyclopropa[4′,5′]cyclopenta[1′,2′:18,19][1,10,3,6]dioxadiazacyclononadecino[11,12-b]quinoxaline-9-carboxamide]: the EC50 in assay [1] was 10 nM; in [2], 6.4 nM; in assay [4] it was 20 nM; in [5] it was 5.4 nM; in assay [6] it was 6.8 nM; in assay [7], 13 nM. Further, the EC50 was found to be 6.8 nM in assay [8], 15 nM in [9], 11 nM in assay [10] and 5.6 nM in assay [11]. Further, the Ki in assay [3] worked out at 0.04 nM; in [12], 0.06 nM.

As for `CC[C@@H]1[C@@H]2CN(C(=O)[C@H](C(C)(C)C)NC(=O)O[C@@H]3C[C@H]3CCCCC(F)(F)c3nc4ccc(OC(F)(F)F)cc4nc3O2)[C@@H]1C(=O)N[C@]1(C(=O)NS(=O)(=O)C2(C)CC2)C[C@H]1C(F)F` [Example 83, (1aR,5S,8S,9S,10R,22aR)-5-tert-butyl-N-[(1R,2R)-2-(difluoromethyl)-1-{[(1-methylcyclopropyl)sulfonyl]carbamoyl}cyclopropyl]-9-ethyl-18,18-difluoro-3,6-dioxo-14-(trifluoromethoxy)-1,1a,3,4,5,6,9,10,18,19,20,21,22,22a-tetradecahydro-8H-7,10-methanocyclopropa[18,19][1,10,3,6]dioxadiazacyclononadecino[11,12-b]quinoxaline-8-carboxamide], the EC50 in [1] is 62 nM; in assay [2], 202 nM; in [4], 1220 nM; in [5] it was 62 nM; in assay [6] it was 133 nM; in assay [7] it was 19 nM. Further, the EC50 in assay [8] worked out at 27 nM; in assay [9] it was 300 nM; in assay [10] it was 58 nM; in [11] it was 42 nM. Further, the results for the Ki in assay [3] and in assay [12] were 0.09 nM and 0.48 nM, respectively.

For the origin of these results see patent US10335409B2 (priority 2012, dated 2019).
